Two molecules from patent publication US20100311036A1, “Methods for Augmentation of Cell Cryopreservation” (UNIVERSITY OF SOUTH CAROLINA, priority 2009, published 2010) can be followed below.

The test system of data set [1] is R1 mouse ES cells. Briefly: attachment efficiency (1 day viability) post cryopreservation. The class given is cell-based. The settings on record: post ultrafast vitrification in quartz microcapillary; 2 M PROH and/or 0.5 M extracellular trehalose; day 1, relative to non-frozen control. On the procedure:
(§1) A novel ultrafast cooling (cooling rate >2×10^5° C./min) technique for ice-free cryopreservation (i.e., ultrafast vitrification) of mouse ES cells has been recently developed using quartz microcapillaries (180 μm in inner diameter and 10 μm in wall thickness in the working part). A comparison of the quartz microcapillary and the traditional French type plastic straw used for cell vitrification is given in FIG. 2. […]
(§2) The immediate cell viability post cryopreservation represented by membrane integrity was assessed using the standard live/dead assay kit of two fluorescent probes: calcein AM and ethidium homodimer (Invitrogen, Carlsbad, Calif.). Cells that excluded ethidium homodimer and retained the fluorescent calcein were counted as being viable. To check cell viability more than one day post cryopreservation, cell attachment evaluated at day 1 and proliferation/growth evaluated over a three-day observation period were also studied. […] The number of cells in at least 20 randomly selected representative fields under a 10× objective was counted every day for all the samples. Proliferation was assessed by normalizing the number of cells at day 3 and day 2 to that at day 1. Attachment efficiency (i.e., viability at day 1) was calculated as the ratio of the number of cells of a cryopreserved sample to that of the control non-frozen sample at day 1. […]

Data set [2] relates to R1 mouse ES cells. As to the kind of experiment: immediate cell viability post cryopreservation (membrane integrity, live/dead assay). The settings on record: post ultrafast vitrification in quartz microcapillary; 2 M PROH and/or 0.5 M extracellular trehalose; within 3 hr at day 0. Type of data set: cell-based. The protocol: as §1, §2

`CC(O)CO` (stereo not shown) [1,2-propanediol]: the “1 day viability (attachment efficiency)” value with R1 mouse ES cells [1] is approximately 12%. The molecule also yielded an immediate cell viability with R1 mouse ES cells [2] of approximately 20%.
For `OC[C@H]1O[C@H](O[C@H]2O[C@H](CO)[C@@H](O)[C@H](O)[C@H]2O)[C@H](O)[C@@H](O)[C@@H]1O` [trehalose], in that order: less than 2% and “about 65%”.
